Reference: the supplement of paper PMC11451515

System: P12-Ichikawa
Experiment: cell viability relative to DMSO control; higher = less cytotoxic
Conditions: 48 h
Outline: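 Cells were incubated for 48 h at 37°C before CellTiter-Glo One luminescence was read. The cells were NOMO1 or SEM (500 cells/well) or P12-Ichikawa (1000 cells/well) leukemia cells, adapted for at least four passages in each medium and seeded in 1536-well plates (5 μl). Dosing used library compounds in DMSO applied by pin over 11 threefold points, 47 μM to 0.79 nM. Viability is the per-plate percentage of DMSO wells, with cell-free wells as background.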

[1] = HPLM + 10% dialyzed FBS, 0.000781 µM
[2] = HPLM + 10% dialyzed FBS, 0.00234 µM
[3] = HPLM + 10% dialyzed FBS, 0.00702 µM
[4] = HPLM + 10% dialyzed FBS, 0.0211 µM
[5] = HPLM + 10% dialyzed FBS, 0.0632 µM
[6] = HPLM + 10% dialyzed FBS, 0.19 µM
[7] = HPLM + 10% dialyzed FBS, 0.569 µM
[8] = HPLM + 10% dialyzed FBS, 1.71 µM
[9] = HPLM + 10% dialyzed FBS, 5.12 µM
[10] = HPLM + 10% dialyzed FBS, 15.4 µM
[11] = HPLM + 10% dialyzed FBS, 46.1 µM
[12] = RPMI 5 mM glucose + 10% FBS, 0.000781 µM
[13] = RPMI 5 mM glucose + 10% FBS, 0.00234 µM
[14] = RPMI 5 mM glucose + 10% FBS, 0.00702 µM
[15] = RPMI 5 mM glucose + 10% FBS, 0.0211 µM
[16] = RPMI 5 mM glucose + 10% FBS, 0.0632 µM
[17] = RPMI 5 mM glucose + 10% FBS, 0.19 µM
[18] = RPMI 5 mM glucose + 10% FBS, 0.569 µM
[19] = RPMI 5 mM glucose + 10% FBS, 1.71 µM
[20] = RPMI 5 mM glucose + 10% FBS, 5.12 µM
[21] = RPMI 5 mM glucose + 10% FBS, 15.4 µM
[22] = RPMI 5 mM glucose + 10% FBS, 46.1 µM
[23] = RPMI 5 mM glucose + 10% dialyzed FBS, 0.000781 µM
[24] = RPMI 5 mM glucose + 10% dialyzed FBS, 0.00234 µM
[25] = RPMI 5 mM glucose + 10% dialyzed FBS, 0.00702 µM
[26] = RPMI 5 mM glucose + 10% dialyzed FBS, 0.0211 µM
[27] = RPMI 5 mM glucose + 10% dialyzed FBS, 0.0632 µM
[28] = RPMI 5 mM glucose + 10% dialyzed FBS, 0.19 µM
[29] = RPMI 5 mM glucose + 10% dialyzed FBS, 0.569 µM
[30] = RPMI 5 mM glucose + 10% dialyzed FBS, 1.71 µM
[31] = RPMI 5 mM glucose + 10% dialyzed FBS, 5.12 µM
[32] = RPMI 5 mM glucose + 10% dialyzed FBS, 15.4 µM
[33] = RPMI 5 mM glucose + 10% dialyzed FBS, 46.1 µM

Row | Compound | cell viability [1] | cell viability [2] | cell viability [3] | cell viability [4] | cell viability [5] | cell viability [6] | cell viability [7] | cell viability [8] | cell viability [9] | cell viability [10] | cell viability [11] | cell viability [12] | cell viability [13] | cell viability [14] | cell viability [15] | cell viability [16] | cell viability [17] | cell viability [18] | cell viability [19] | cell viability [20] | cell viability [21] | cell viability [22] | cell viability [23] | cell viability [24] | cell viability [25] | cell viability [26] | cell viability [27] | cell viability [28] | cell viability [29] | cell viability [30] | cell viability [31] | cell viability [32] | cell viability [33]
1 | CC(N[C@H]1CCCC[C@@H]1NC(=O)c1ccc(Cl)cc1)c1cccc2ccccc12 (stereo partly drawn) | 107% | 109% | 114% | 110% | 113% | 115% | 111% | 116% | 114% | 39.7% | 28.1% | 117% | 119% | 113% | 118% | 117% | 115% | 119% | 111% | 102% | 30.9% | 35.2% | 105% | 105% | 109% | 104% | 102% | 113% | 108% | 110% | 106% | 30.6% | 28.7%
2 | CC[C@H]1OC(=O)[C@H](C)C(=O)[C@H](C)[C@@H](O[C@H]2O[C@H](C)C[C@H](N(C)C)[C@H]2O)[C@](C)(OC)C[C@@H](C)C(=O)[C@H](C)[C@H]2N(CCCCn3cnc(-c4cccnc4)c3)C(=O)O[C@]12C | 102% | 119% | 98.3% | 115% | 120% | 116% | 99.1% | 98.3% | 104% | 96.1% | 96.1% | 103% | 109% | 111% | 115% | 122% | 104% | 88.3% | 89.5% | 103% | 105% | 96.5% | 111% | 122% | 140% | 147% | 130% | 82% | 63.3% | 89.9% | 114% | 92.6% | 97.5%
3 | O=C(CCCN1CCN(c2ccc(F)cc2)CC1)NC1c2ccccc2CSc2ccccc21 (stereo not drawn) | 120% | 125% | 123% | 119% | 121% | 120% | 117% | 119% | 109% | 102% | 71.4% | 126% | 121% | 119% | 126% | 131% | 123% | 136% | 119% | 97.4% | 83.5% | 55.1% | 123% | 122% | 122% | 120% | 120% | 115% | 121% | 110% | 100% | 77.7% | 59%
4 | CCCCOCCOc1nc(-c2ccc(C(=O)O)c(F)c2)sc1C | 119% | 116% | 112% | 116% | 119% | 112% | 115% | 112% | 107% | 94.5% | 110% | 124% | 117% | 118% | 120% | 120% | 110% | 108% | 100% | 99.7% | 86.5% | 97.6% | 123% | 127% | 124% | 121% | 116% | 114% | 118% | 105% | 111% | 85% | 113%
5 | COc1cc[nH]c2ncc(C(=O)C(=O)N3CCN(C(=O)c4ccccc4)C[C@H]3C)c1-2 | 114% | 112% | 118% | 111% | 112% | 109% | 108% | 101% | 106% | 103% | 102% | 114% | 118% | 119% | 117% | 117% | 117% | 122% | 111% | 107% | 111% | 97.5% | 105% | 109% | 96.9% | 110% | 101% | 99.1% | 116% | 103% | 99.4% | 99.5% | 103%
6 | COc1cccc2c1C(=O)c1c(O)c3c(c(O)c1C2=O)C[C@@](O)(C(=O)CO)C[C@@H]3O[C@H]1C[C@H](N)[C@H](O)[C@H](C)O1 | 115% | 114% | 112% | 117% | 116% | 107% | 98.6% | 58.2% | 7.45% | 5.63% | 11.9% | 113% | 116% | 119% | 114% | 113% | 108% | 93.8% | 44.7% | 7.04% | 5.82% | 8.62% | 109% | 114% | 108% | 107% | 117% | 106% | 92.2% | 67% | 7.81% | 7.58% | 13%
7 | CNCC[C@H](Oc1cccc2ccccc12)c1cccs1 | 109% | 116% | 111% | 113% | 109% | 96.2% | 112% | 108% | 105% | 95.8% | 25.1% | 126% | 119% | 124% | 120% | 121% | 119% | 112% | 118% | 119% | 111% | 81% | 107% | 115% | 112% | 119% | 105% | 116% | 111% | 105% | 105% | 98.6% | 58%
8 | Nc1ncnc2c1ncn2[C@@H]1O[C@H](CO)C[C@H]1O | 92.5% | 96.4% | 92.8% | 93.1% | 98.8% | 94.1% | 93.1% | 88.8% | 92.2% | 89.3% | 89% | 87.9% | 104% | 94% | 94.4% | 87.7% | 96% | 93% | 93.5% | 85.3% | 86.8% | 87.6% | 83.8% | 90.1% | 97.7% | 90.9% | 87.4% | 91.2% | 94.5% | 87.6% | 86.1% | 89.6% | 92.3%
9 | CC(C)c1cc(C(C)C)c(CC(=O)N[S+](=O)([O-])Oc2c(C(C)C)cccc2C(C)C)c(C(C)C)c1 | 103% | 106% | 103% | 106% | 103% | 104% | 104% | 103% | 101% | 97% | 89.7% | 105% | 102% | 104% | 96.8% | 102% | 96.9% | 109% | 96.8% | 102% | 97.6% | 76.9% | 99.5% | 108% | 105% | 105% | 110% | 101% | 98.3% | 90.1% | 99.1% | 89.2% | 87%
10 | CC(C(=O)O)c1ccc2c(c1)CC(=O)c1ccccc1S2 (stereo not drawn) | 104% | 108% | 107% | 110% | 118% | 106% | 115% | 101% | 111% | 37.5% | 25.1% | 99.3% | 117% | 101% | 104% | 116% | 115% | 118% | 109% | 106% | 24% | 18.8% | 102% | 101% | 101% | 99.2% | 99.5% | 107% | 104% | 109% | 104% | 31.7% | 21.2%
11 | Cc1csc(-c2nnc(Nc3ccc(Oc4ncccc4-c4ccnc(N)n4)cc3)c3ccccc23)c1 | 107% | 111% | 104% | 15.1% | 16.6% | 14.6% | 19.1% | 23.2% | 20.1% | 18.7% | 22% | 104% | 116% | 106% | 22.3% | 20.1% | 16.7% | 20.3% | 26.5% | 26.4% | 24.3% | 24.9% | 117% | 109% | 108% | 27.8% | 24.8% | 27.1% | 34.4% | 39.9% | 43.5% | 39.6% | 38.1%
12 | CC#CCn1c(N2CCC[C@@H](N)C2)nc2c1c(=O)n(Cc1nc(C)c3ccccc3n1)c(=O)n2C | 104% | 104% | 99.3% | 89.2% | 108% | 109% | 104% | 97.8% | 103% | 99.7% | 88.5% | 94.9% | 102% | 102% | 85.9% | 96.8% | 94.6% | 96.1% | 93.9% | 91.2% | 87.4% | 94.9% | 104% | 102% | 98.4% | 83.6% | 100% | 109% | 101% | 95.9% | 97.6% | 85.1% | 85.9%
13 | CCCCCNC(=O)N1CCC(CN(Cc2ccc(Cl)cc2)Cc2ccc([N+](=O)[O-])s2)C1 (stereo not drawn) | 113% | 127% | 119% | 121% | 111% | 114% | 111% | 110% | 103% | 96.9% | 85.6% | 108% | 116% | 113% | 107% | 114% | 100% | 107% | 97% | 103% | 90.4% | 74.2% | 123% | 104% | 104% | 117% | 111% | 113% | 109% | 95.2% | 101% | 94.3% | 78.9%
14 | NC[C@H]1O[C@H](O[C@@H]2[C@H](O)[C@@H](O[C@H]3O[C@H](CO)[C@@H](O)[C@H](N)[C@H]3O)[C@H](N)C[C@@H]2N)[C@H](O)[C@@H](O)[C@@H]1O | 126% | 124% | 124% | 107% | 120% | 121% | 117% | 121% | 112% | 104% | 107% | – | – | – | – | – | – | – | – | – | – | – | – | – | – | – | – | – | – | – | – | – | –
15 | C=CC(=O)Nc1cc2c(Nc3ccc(F)c(Cl)c3)ncnc2cc1OCCCN1CCOCC1 | 124% | 132% | 119% | 120% | 118% | 122% | 113% | 109% | 94.3% | 67.2% | 53.1% | 117% | 124% | 125% | 126% | 111% | 110% | 118% | 110% | 93.5% | 73.6% | 89.8% | 134% | 122% | 119% | 126% | 126% | 128% | 127% | 108% | 96.4% | 91.6% | 100%
